# Data as given in article PMC12281424, “A Rac-specific competitive inhibitor of guanine nucleotide binding reduces metastasis in triple-negative breast cancer” (Cell Reports Medicine, 2025).
# Legend:
# Type in all cases: biochemical
# Hck(h) activated = Hck(h) activated (Homo sapiens, UniProt P08631); test: Kinase Profiler
# Experimental: (§1) The kinase profiler was performed by the company Eurofins (Discovery, Panlab and Cerep).
# STK39(h) = STK39(h) (Homo sapiens, UniProt Q9UEW8); test: Kinase Profiler
# Experimental: as §1
# Monoamine Oxidase MAO-B = Monoamine Oxidase MAO-B (Homo sapiens, UniProt P27338); test: Safety screen
# Sequence of Monoamine Oxidase MAO-B (P27338 whole entry): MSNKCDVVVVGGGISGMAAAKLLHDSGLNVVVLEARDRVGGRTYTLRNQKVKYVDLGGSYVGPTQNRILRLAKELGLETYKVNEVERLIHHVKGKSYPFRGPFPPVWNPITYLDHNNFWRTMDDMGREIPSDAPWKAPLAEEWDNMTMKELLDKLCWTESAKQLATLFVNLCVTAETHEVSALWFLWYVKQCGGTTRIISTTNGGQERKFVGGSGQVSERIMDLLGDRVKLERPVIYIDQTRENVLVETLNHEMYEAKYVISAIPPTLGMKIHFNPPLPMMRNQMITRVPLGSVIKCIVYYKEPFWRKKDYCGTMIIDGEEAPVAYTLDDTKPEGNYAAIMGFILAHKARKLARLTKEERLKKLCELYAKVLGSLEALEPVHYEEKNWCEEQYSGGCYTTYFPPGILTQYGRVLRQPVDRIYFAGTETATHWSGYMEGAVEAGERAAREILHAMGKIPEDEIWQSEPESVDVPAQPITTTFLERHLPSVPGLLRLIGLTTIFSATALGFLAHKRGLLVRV
# Experimental: Blood cell counts, kinase profiler, safety screen, bacterial cytotoxicity, Ames, micronucleus assays were performed by the company Eurofins (France).
# RAC1 G30S = biological target: T1, RAC1 G30S (Homo sapiens, UniProt P63000, G30S); test: GEF-stimulated nucleotide exchange; parameters: dose or concentration left out as unconfirmed
# T1 construct: Full-length RAC1G30S was obtained by directed mutagenesis on the pET-3a-RAC1HisCter plasmid; 6xHis (C); made in house
# From the text: Figure 4 A41 selectively impairs RAC protein activation (A) Representative surface plasmon resonance (SPR) sensograms of binding of immobilized RHOA or CDC42 with indicated increasing concentrations of A41 (N > 3). (B) Effect of A41 on GEF-stimulated RAC2, RHOG, RHOA, and CDC42 nucleotide exchange. […] Kobs is expressed as mean ± SEM. ∗p < 0.001 vs. control. (C) Effect of A41 on RAC1 G30S activation. […] Data are expressed as mean ± SEM. (D) Immunoblot analysis and associated quantification of RAC-GTP level and total RAC expression in NIH-3T3 fibroblasts expressing RAC wild-type (RAC1 WT) or RAC1 oncomutants (RAC1 P29S and RAC1b) in the absence (Ctrl) and presence of A41 (10 μM). RAC activation was measured as the ratio of RAC-GTP to total RAC and expressed relative to Ctrl condition. Data are presented as mean ± SEM. ∗∗∗p < 0.001 vs. controls.
# Full-length RAC1 carrying a 6xHis tag in C-terminus was purified as previously described.[64] […] Specific exchange activity toward RHOA determined by fluorescence kinetics is 0.04 s^−1M^−1.
# Nucleotide exchange kinetics were measured by recording the increase in fluorescence following the association of mant-GTP on GDP-bound RHO protein or the decay in fluorescence following the dissociation of mant-GDP pre-loaded onto the RHO protein (λEx = 360 nm, λEm = 440 nm) as previously described.[39] […]
# PRKG2(h) = PRKG2(h) (Homo sapiens, UniProt Q13237); test: Kinase Profiler
# Sequence of PRKG2(h) (Q13237 whole entry): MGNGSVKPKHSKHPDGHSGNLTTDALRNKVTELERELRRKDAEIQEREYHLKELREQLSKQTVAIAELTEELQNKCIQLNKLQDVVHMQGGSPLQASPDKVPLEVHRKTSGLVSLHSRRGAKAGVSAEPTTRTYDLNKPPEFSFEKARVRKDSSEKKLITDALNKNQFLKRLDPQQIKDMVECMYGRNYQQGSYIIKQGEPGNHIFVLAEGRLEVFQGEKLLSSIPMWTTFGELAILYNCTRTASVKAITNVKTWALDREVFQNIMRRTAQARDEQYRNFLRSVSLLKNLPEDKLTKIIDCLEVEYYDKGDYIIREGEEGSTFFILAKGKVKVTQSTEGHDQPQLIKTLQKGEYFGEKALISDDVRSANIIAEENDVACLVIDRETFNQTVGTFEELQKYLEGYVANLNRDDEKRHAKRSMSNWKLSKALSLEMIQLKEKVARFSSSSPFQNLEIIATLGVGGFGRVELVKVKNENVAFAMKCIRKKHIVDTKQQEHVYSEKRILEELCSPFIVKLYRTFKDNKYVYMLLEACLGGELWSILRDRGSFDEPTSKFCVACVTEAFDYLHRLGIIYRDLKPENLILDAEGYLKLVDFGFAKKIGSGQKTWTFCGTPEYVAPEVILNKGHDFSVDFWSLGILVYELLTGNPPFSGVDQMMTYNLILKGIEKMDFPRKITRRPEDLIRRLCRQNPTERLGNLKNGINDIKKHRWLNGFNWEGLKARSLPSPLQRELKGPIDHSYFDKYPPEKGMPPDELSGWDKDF
# Experimental: (§2) Blood cell counts, kinase profiler, safety screen, bacterial cytotoxicity, Ames, micronucleus assays were performed by the company Eurofins (France). The kinase profiler was performed by the company Eurofins (Discovery, Panlab and Cerep).
# ULK3(h) = ULK3(h) (Homo sapiens, UniProt Q6PHR2); test: Kinase Profiler
# Sequence of ULK3(h) (Q6PHR2 whole entry): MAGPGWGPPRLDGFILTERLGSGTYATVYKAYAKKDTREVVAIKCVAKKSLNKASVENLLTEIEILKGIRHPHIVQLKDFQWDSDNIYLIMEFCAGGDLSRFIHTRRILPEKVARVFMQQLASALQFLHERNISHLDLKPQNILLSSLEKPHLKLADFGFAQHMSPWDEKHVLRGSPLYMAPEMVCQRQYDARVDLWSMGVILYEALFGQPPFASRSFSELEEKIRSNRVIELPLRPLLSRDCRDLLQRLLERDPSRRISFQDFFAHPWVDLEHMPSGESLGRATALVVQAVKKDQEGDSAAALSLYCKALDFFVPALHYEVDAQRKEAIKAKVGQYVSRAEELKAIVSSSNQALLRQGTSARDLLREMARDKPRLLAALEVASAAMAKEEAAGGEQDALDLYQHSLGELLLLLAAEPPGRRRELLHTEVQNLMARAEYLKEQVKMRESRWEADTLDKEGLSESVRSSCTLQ
# Experimental: as §2
# Sequence of Hck(h) activated (P08631 whole entry): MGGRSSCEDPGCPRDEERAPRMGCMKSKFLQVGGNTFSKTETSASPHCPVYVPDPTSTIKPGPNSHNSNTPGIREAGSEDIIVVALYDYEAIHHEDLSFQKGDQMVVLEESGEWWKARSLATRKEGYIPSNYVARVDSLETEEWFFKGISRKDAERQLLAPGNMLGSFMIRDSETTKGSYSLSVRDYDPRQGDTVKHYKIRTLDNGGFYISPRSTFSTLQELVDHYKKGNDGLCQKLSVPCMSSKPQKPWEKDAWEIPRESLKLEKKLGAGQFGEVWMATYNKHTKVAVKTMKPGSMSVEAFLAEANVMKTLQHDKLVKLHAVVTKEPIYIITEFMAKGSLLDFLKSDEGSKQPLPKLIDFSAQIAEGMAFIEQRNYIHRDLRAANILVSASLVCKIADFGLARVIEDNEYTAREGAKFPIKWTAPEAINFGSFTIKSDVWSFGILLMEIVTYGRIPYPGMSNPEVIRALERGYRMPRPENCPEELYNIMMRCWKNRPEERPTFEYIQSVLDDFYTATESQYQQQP
smiles,measurement,setting,value
COc1ccc(OC)c(NS(=O)(=O)c2ccc(NC(=O)CCSc3ccc(C)cc3)cc2)c1 [Compound A41],Activity(%),Hck(h) activated,102%
same,Activity(%),STK39(h),91%
same,% inh.,Monoamine Oxidase MAO-B,17%
same,TRIO-induced nucleotide exchange on RAC1 G30S,RAC1 G30S,not able to inhibit
same,Activity(%),PRKG2(h),123%
same,Activity(%),ULK3(h),97%
